The text below walks through data of PMC10140581, “Development and evaluation of novel artemisinin-isatin hybrids with potential anti-leukemic cytotoxicity” (Frontiers in Oncology, 2023).

Series [1] deals with CCRF-CEM human acute lymphoblastic leukemia cell line. The series is described as follows: MTT antiproliferative assay, CCRF-CEM. The class given is cell-based. The method, then:
(§1) The antiproliferative activity and cytotoxicity of ester tethered ART-isatin hybrids 7a-u against human myeloid leukemia cell lines (K562 CM-0130 purchased from Procell and K562/ADR AW-CELLS-H0187 purchased from AnWei-sci), human acute lymphoblastic leukemia cell line (CCRF-CEM CL-0058 purchased from Procell) as well as cytotoxicity towards normal human peripheral blood mononuclear cells (PBMCs 230470, purchased from Mingzhoubio) were assessed by 3-(4,5-dimethylthiazol-2-yl)-2,5-diphenyltetrazolium bromide (MTT) assay.
(§2) Medium in wells was replaced after 24 h with fresh medium containing the tested compounds in DMSO (1% v/v) and incubated for 72 h. […] 3-(4,5-dimethyl-2-thiazolyl)-2,5-diphenyltetrazolium bromide (MTT) solution (10 µL) was added to each well, and the cultures were incubated for an additional 4 h at 37°C. A further 100 µL of […] was added and incubation continued overnight at 37°C. The absorbance at 540 nm was determined in each well with a 96-well plate reader. The growth of the treated cells was compared with that of untreated cells. Half maximum inhibitory concentration (IC50) is a measurement of the efficacy of a substance in inhibiting a specific biological or biochemical process. […] In this experiment, the dose-response curve constructed by Spss22.0 software was used to calculate the inhibitory effect of the hybrid (0 μM-100 μM) on the activity of leukemia cell lines. Each experiment was performed independently in triplicate with three tests in each, and results were reported as mean inhibitory concentration IC50.

A short description of series [2]: MTT cytotoxicity assay, normal PBMCs. It counts as cell-based, human. Conditions: normal peripheral blood mononuclear cells (PBMCs); MTT assay, normal human PBMCs. The method, then: as §1
The subject of series [3] is normal human peripheral blood mononuclear cells (PBMCs). The series is described as follows: MTT cytotoxicity assay, normal PBMCs. Conditions: PBMCs vs CCRF-CEM. The class given is cell-based. The protocol: as §1
Series [4] has as its system K562/ADR human myeloid leukemia cell line. The series is described as follows: MTT antiproliferative assay, K562/ADR. The class given is cell-based. The method, then: as §1, with “assay. The antiproliferative activity was expressed by half maximal inhibitory concentration (IC50) values, which were presented in Table 2 .” for “assay.”
as §2

Series [5] has as its system K562 human myeloid leukemia cell line. The series is described as follows: MTT antiproliferative assay, K562. It counts as cell-based. The method, then:
as §1, §2

On to `CON=C1C(=O)N(CCCC(=O)OC2O[C@@H]3O[C@@]4(C)CC[C@H]5[C@H](C)CC[C@@H]([C@H]2C)[C@@]35OO4)c2ccccc21` (stereo partly drawn) [hybrid 7m, (3R,5aS,6R,8aS,9R,12R,12aR)-3,6,9-trimethyldecahydro-12H-3,12-epoxy[1,2]dioxepino[4,3-i]isochromen-10-yl 4-(3-(methoxyimino)-2-oxoindolin-1-yl)butanoate], for which the IC50 was 2.78 µM in series [1], greater than 100 µM in series [2], greater than 100 µM in series [4] and greater than 100 µM in series [5]. Further, the “SI, Selectivity index, IC50(PBMCs)/IC50(CCRF-CEM)” value (from here on “SI, Selectivity index”) in series [3] is greater than 35.97.
On to `CON=C1C(=O)N(CCCC(=O)OC2O[C@@H]3O[C@@]4(C)CC[C@H]5[C@H](C)CC[C@@H]([C@H]2C)[C@@]35OO4)c2ccc(F)cc21` (stereo partly drawn) [hybrid 7p, (3R,5aS,6R,8aS,9R,12R,12aR)-3,6,9-trimethyldecahydro-12H-3,12-epoxy[1,2]dioxepino[4,3-i]isochromen-10-yl 4-(3-(methoxyimino)-5-fluoro-2-oxoindolin-1-yl)butanoate], for which the IC50 is 18.6 µM in series [1], greater than 100 µM in series [2], greater than 100 µM in series [4] and 49.8 µM in series [5]. Moreover, the “SI, Selectivity index” value in series [3] is recorded as greater than 5.36.
Regarding `CCON=C1C(=O)N(CCCC(=O)OC2O[C@@H]3O[C@@]4(C)CC[C@H]5[C@H](C)CC[C@@H]([C@H]2C)[C@@]35OO4)c2ccc(F)cc21` (stereo partly drawn) [hybrid 7q, (3R,5aS,6R,8aS,9R,12R,12aR)-3,6,9-trimethyldecahydro-12H-3,12-epoxy[1,2]dioxepino[4,3-i]isochromen-10-yl 4-(3-(ethoxyimino)-5-fluoro-2-oxoindolin-1-yl)butanoate], the IC50 is 12.7 µM in series [1], greater than 100 µM in series [2], greater than 100 µM in series [4] and 16 µM in series [5]. Further, in series [3], the “SI, Selectivity index” value is greater than 7.85.
As for `C[C@@H]1CC[C@H]2[C@@H](C)C(OC(=O)CCCN3C(=O)C(=NOCc4ccccc4)c4cc(F)ccc43)O[C@@H]3O[C@@]4(C)CC[C@@H]1[C@]32OO4` (stereo partly drawn) [hybrid 7r, (3R,5aS,6R,8aS,9R,12R,12aR)-3,6,9-trimethyldecahydro-12H-3,12-epoxy[1,2]dioxepino[4,3-i]isochromen-10-yl 4-(3-[(benzyloxy)imino)-5-fluoro-2-oxoindolin-1-yl]butanoate], the half-inhibitory concentration (IC50) is 9.21 µM in series [1], greater than 100 µM in series [2], greater than 100 µM in series [4] and 6.32 µM in series [5]. For the same compound, the “SI, Selectivity index” value in series [3] was greater than 10.85.
For `CON=C1C(=O)N(CCCC(=O)OC2O[C@@H]3O[C@@]4(C)CC[C@H]5[C@H](C)CC[C@@H]([C@H]2C)[C@@]35OO4)c2ccc(OC)cc21` (stereo partly drawn) [hybrid 7s, (3R,5aS,6R,8aS,9R,12R,12aR)-3,6,9-trimethyldecahydro-12H-3,12-epoxy[1,2]dioxepino[4,3-i]isochromen-10-yl 4-(5-methoxy-3-(methoxyimino)-2-oxoindolin-1-yl)butanoate], the IC50 in series [1] is 3.82 µM; in series [2], greater than 100 µM; in series [4], greater than 100 µM; in series [5], greater than 100 µM. Moreover, the “SI, Selectivity index” value in series [3] is given as greater than 26.17.
As to `CCON=C1C(=O)N(CCCC(=O)OC2O[C@@H]3O[C@@]4(C)CC[C@H]5[C@H](C)CC[C@@H]([C@H]2C)[C@@]35OO4)c2ccc(OC)cc21` (stereo partly drawn) [hybrid 7t, (3R,5aS,6R,8aS,9R,12R,12aR)-3,6,9-trimethyldecahydro-12H-3,12-epoxy[1,2]dioxepino[4,3-i]isochromen-10-yl 4-(3-(ethoxyimino)-5-methoxy-2-oxoindolin-1-yl)butanoate], the IC50 in series [1] is 1.9 µM; in series [2] it was greater than 100 µM; in series [4] it was greater than 100 µM; in series [5], greater than 100 µM. Moreover, the “SI, Selectivity index” value in series [3] is recorded as greater than 52.63.
For the compound `COc1ccc2c(c1)C(=NOCc1ccccc1)C(=O)N2CCCC(=O)OC1O[C@@H]2O[C@@]3(C)CC[C@H]4[C@H](C)CC[C@@H]([C@H]1C)[C@@]24OO3` (stereo partly drawn) [hybrid 7u, (3R,5aS,6R,8aS,9R,12R,12aR)-3,6,9-trimethyldecahydro-12H-3,12-epoxy[1,2]dioxepino[4,3-i]isochromen-10-yl 4-(3-[(benzyloxy)imino)-5-methoxy-2-oxoindolin-1-yl]butanoate], the half-maximal inhibitory concentration (IC50) in series [1] was 2.45 µM; in series [2] it was greater than 100 µM; in series [4], greater than 100 µM; in series [5] it was greater than 100 µM. Further, the “SI, Selectivity index” value in series [3] is recorded as greater than 40.81.
